According to patent publication US11534377B2, “Hair growth agent” (KOBAYASHI PHARMACEUTICAL CO., LTD., priority 2016, dated 2022):

What was measured:
[1] = test system: transplanted mice (hair follicles of haired mice transplanted into the back of nude mice); experiment: Hair shaft growth in nude mice transplanted with hair follicles of haired mice (Example 1); type: in vivo; settings: for Hair shaft growth rate: topical 4 times per day
Protocol: Hair follicles (surgically prepared) of haired mice were transplanted into the back of nude mice (from Sankyo Labo Service Corporation, Inc.) to produce transplanted mice manipulated such that each hair can be distinguished and a plurality of hair cycles can be observed. First, a 50% ethanol aqueous solution (12.5 μl, not containing the agent) was applied to the transplanted mice 4 times per day during new hair growth in the first hair cycle to obtain reference data of a hair cycle. After the hair had shed following the end of the first hair cycle, a 50% ethanol aqueous solution (12.5 μl) containing a predetermined amount of the agent was applied to the mice 4 times per day to obtain data on effects of the agent. After the hair had shed following the end of the second hair cycle, a 50% ethanol aqueous solution (12.5 μl) containing the agent in the same amount as that in the second hair cycle was applied to the mice in a similar manner to the second hair cycle to obtain reproducibility data on effects of the agent. As the agent, D-chiro-inositol (from Wako Pure Chemical Industries Ltd.) and its stereoisomers as chiro-inositol, L-chiro-inositol (from Tokyo Chemical Industry Co., Ltd.), myo-inositol (from Wako Pure Chemical Industries Ltd.), allo-inositol (cis-1,2,3,4-trans-5,6-cyclohexaneheaxol) (from Tokyo Chemical Industry Co., Ltd.), epi-inositol (cis-1,2,3,4,5-trans-6-cyclohexanehexaol) (from Tokyo Chemical Industry Co., Ltd.), muco-inositol (cis-1,2,4,5-trans-3,6-cyclohexanehexaol) (from Tokyo Chemical Industry Co., Ltd.), and scyllo-inositol (cis-1,3,5-trans-2,4,6-cyclohexanehexaol) (from Tokyo Chemical Industry Co., Ltd.) were used. For each agent solution, the lengths of hair shafts were measured every 2 to 3 days, an average length of hair shafts that changed day by day was plotted as one dot at each time point in a graph, and a similar plotting was repeated for 3 to 4 mice. The results were shown in Tables 1 to 14 and FIGS. 1 to 14.

[2] = test system: crab-eating macaque (Macaca fascicularis); experiment: New hair growth test in monkey (Example 4); type: in vivo; settings: 1 wt % in 50% ethanol, once/day 150 μl, 8 weeks, sparse hair region of head; number of hair before application = 100%
Source text: A crab-eating macaque (Macaca fascicularis) is a monkey (class: Mammalia, order: Primates, family: Cercopithecidae, genus: Macaca) that has many similarities to humans, such as the morphology of the temporomandibular joint, and is frequently employed as a laboratory animal for morphological studies and medication studies due to its easy breeding and rearing. The crab-eating macaque is known for the replacement of the body hair in a six-month cycle in a year. Among aged female monkeys that had babies repeatedly and aged male monkeys of low social status, individuals with observed symptoms of hair thinning or sparse hair emerge with low frequency. […] In this Example, to an aged crab-eating macaque (19 years of age, male) having sparse body hair of the head, a test solution A in which D-chiro-inositol (from Wako Pure Chemical Industries Ltd.) was dissolved in 50% ethanol at a concentration of 1 wt % and a test solution B in which myo-inositol was dissolved in 50% ethanol at a concentration of 1 wt % were applied every day to about 4 cm^2-sparse hair regions (2 cm×2 cm) in both left and right sides across the median line of the head of the macaque. The application (once/day, 150 μl) was performed over 8 weeks, and 50% ethanol was applied as a negative control. At the end of 8 weeks, hair shafts in the applied regions were cut with hair clippers while leaving 2 to 3 mm from pores toward the outside of the body, and the total number of hair protruded from the pores in the applied regions was counted. A new hair growth rate was calculated as an increase rate in the number of hair at the end of 8 weeks, relative to the number of hair protruded from pores in the same regions before the application at the start of the test as 100%.

hair papilla cells = experiment: Hair papilla cell proliferation test by two-dimensional culture (Example 5); type: cell-based, C57BL/6N mouse; settings: final concentration 0.1 wt %, cultured for 3 days; FIG. 18
Source text: Hair papilla cells transmit new hair growth signals to hair matrix cells via signaling substances to activate hair matrix cells, thereby controlling processes of new hair growth and hair elongation. Accordingly, the hair shaft growth promoting activity and the like of test substances can be evaluated from a proliferation rate of hair papilla cells. In this Example, the skin of the whisker region was taken from a C57BL/6N mouse and hair papillae were harvested from isolated whisker follicles under a stereo microscope. Six hair papillae were fixed to the bottom surface of a 60 mm-plastic petri dish (from Sumitomo Bakelite Co., Ltd.), and the primary culture was performed at 37° C. in the presence of 5% CO2 by using a hair papilla cell culture medium in which 2% FCS (fetal calf serum), 0.6% ITT (insulin-transferrin-triiodothyronine mixture), 1% BPE (bovine pituitary extract), and 0.6% Cyp (cyproterone solution) were added to a PCGM base medium. Afterwards, the medium was replaced every 2 to 3 days and subculturing was repeated about every two weeks. In this experiment, hair papilla cells at passage 3 or less were used. […] The number of cells after culturing for 3 days was counted by using a hemocytometer, and proliferation rates in test solution A and the test solution B were calculated relative to 100% for a proliferation rate in the negative control as 100%.

[3] = test system: hair papilla cell spheroids; experiment: Hair papilla cell proliferation test by three-dimensional culture (Example 6); type: cell-based, C57BL/6N mouse; settings: final concentrations 0.05 wt %, 0.1 wt %, and 1 wt %, cultured for 3 days; FIG. 19
Protocol: In this Example, hair papilla cells prepared in a similar manner to Example 5 were seeded in a 96-well U-bottom microplate for cell culture (from Sumitomo Bakelite Co., Ltd.) at 6,000 cells/well and centrifuged with a plate centrifuge at room temperature and at a rotating speed of 1,000 rpm for 1 minute to yield three-dimensional hair papilla cell spheroids. The spheroids were cultured for 3 days by using each of test solutions A1 to A3 that were hair papilla cell culture media to which D-chiro-inositol dissolved in PBS was added at a final concentration of 0.05 wt %, 0.1 wt %, or 1 wt %; test solutions B1 to B3 that were hair papilla cell culture media to which myo-inositol dissolved in PBS was added at a final concentration of 0.05 wt %, 0.1 wt %, or 1 wt %; and a negative control that was a hair papilla cell culture medium to which PBS alone was added. The spheroids after culturing for 3 days were imaged by using a VHX2000 digital microscope (Keyence Corporation), and the area of the spheroids was calculated by using a digital microscope analysis tool. By calculating a spheroid area increase rate in the test solutions A1 to A3 and B1 to B3, relative to an area increase rate in the negative control as 100%, the proliferation of hair papilla cells in conditions further close to in vivo condition was quantified.

obese mice = settings: insulin sensitivity increasing substances, PTL 2; cited from earlier work
[4] = 5 wt % in 50% ethanol, second hair cycle
[5] = 5 wt % in 50% ethanol, third hair cycle (reproducibility)
[6] = 5 wt %, third hair cycle (reproducibility)
[7] = 1 wt % in 50% ethanol, second hair cycle
[8] = 1 wt % in 50% ethanol, third hair cycle (reproducibility)
[9] = 1 wt %, third hair cycle (reproducibility)

O[C@H]1[C@H](O)[C@@H](O)[C@H](O)[C@@H](O)[C@@H]1O [scyllo-inositol, cis-1,3,5-trans-2,4,6-cyclohexanehexaol]
Hair growth activity (hair shaft growth rate and maximum length vs reference data) ([1]; 5 wt %): hair growth activity was not confirmed | Hair shaft growth rate [1, 4]: 0.35 ± 0.09 mm/day | Hair shaft growth rate [1, 5]: 0.35 ± 0.09 mm/day | Hair shaft maximum length ([1]; 5 wt %, second hair cycle): 4.4 ± 0.3 mm | Hair shaft maximum length [1, 6]: 4.4 ± 0.5 mm

OC1C(O)C(O)C(O)C(O)C1O (stereo not drawn) [allo-inositol, cis-1,2,3,4-trans-5,6-cyclohexaneheaxol]
Hair shaft growth rate [1, 7]: 0.37 ± 0.03 mm/day | Hair shaft growth rate [1, 8]: 0.40 ± 0.04 mm/day | Hair shaft maximum length ([1]; 1 wt %, second hair cycle): 5.0 ± 0.5 mm | Hair shaft maximum length [1, 9]: 5.2 ± 0.5 mm | Hair shaft growth rate [1, 4]: 0.43 ± 0.02 mm/day | Hair shaft growth rate [1, 5]: 0.40 ± 0.03 mm/day | Hair growth activity (hair shaft growth rate and maximum length vs reference data) ([1]; 5 wt % or 1 wt %): hair growth activity was not confirmed | Hair shaft maximum length ([1]; 5 wt %, second hair cycle): 5.5 ± 0.3 mm | Hair shaft maximum length [1, 6]: 5.5 ± 0.8 mm

O[C@H]1[C@H](O)[C@@H](O)[C@H](O)[C@@H](O)[C@H]1O [myo-inositol, cis-1,2,3,5-trans-4,6-cyclohexanehexaol]
Hair shaft growth rate [1, 7]: 0.45 ± 0.03 mm/day | Hair shaft growth rate [1, 8]: 0.44 ± 0.08 mm/day | Hair shaft maximum length ([1]; 1 wt %, second hair cycle): 4.9 ± 0.5 mm | Hair shaft maximum length [1, 9]: 5.0 ± 0.5 mm | Hair shaft growth rate [1, 4]: 0.37 ± 0.05 mm/day | Hair shaft growth rate [1, 5]: 0.39 ± 0.06 mm/day | Hair growth activity (hair shaft growth rate and maximum length vs reference data) ([1]; 5 wt % or 1 wt %): hair growth activity was not confirmed | Hair shaft maximum length ([1]; 5 wt %, second hair cycle): 4.6 ± 0.5 mm | Hair shaft maximum length [1, 6]: 4.7 ± 0.5 mm | New hair growth rate [2]: 107.1% | Hair papilla cell proliferation rate vs negative control (hair papilla cells): no significant difference was observed | Hair papilla cell spheroid area vs negative control [3]: no significant differences were observed

OC1C(O)C(O)C(O)C(O)C1O [L-chiro-inositol]
Hair growth activity (hair shaft growth rate and maximum length vs reference data) ([1]; 5 wt %): hair growth activity was not confirmed | Hair shaft growth rate [1, 4]: 0.33 ± 0.08 mm/day | Hair shaft growth rate [1, 5]: 0.33 ± 0.13 mm/day | Hair shaft maximum length ([1]; 5 wt %, second hair cycle): 4.9 ± 0.7 mm | Hair shaft maximum length [1, 6]: 4.8 ± 0.8 mm

OC1C(O)C(O)C(O)C(O)C1O (stereo not drawn) [epi-inositol, cis-1,2,3,4,5-trans-6-cyclohexanehexaol]
Hair shaft growth rate [1, 7]: 0.43 ± 0.06 mm/day | Hair shaft growth rate [1, 8]: 0.45 ± 0.09 mm/day | Hair shaft maximum length ([1]; 1 wt %, second hair cycle): 5.2 ± 0.3 mm | Hair shaft maximum length [1, 9]: 5.3 ± 0.4 mm | Hair shaft growth rate [1, 4]: 0.33 ± 0.09 mm/day | Hair shaft growth rate [1, 5]: 0.32 ± 0.09 mm/day | Hair growth activity (hair shaft growth rate and maximum length vs reference data) ([1]; 5 wt % or 1 wt %): hair growth activity was not confirmed | Hair shaft maximum length ([1]; 5 wt %, second hair cycle): 4.7 ± 0.6 mm | Hair shaft maximum length [1, 6]: 4.5 ± 0.6 mm

CN(C)C(=N)N=C(N)N [metformin]
Effect on hair loss (obese mice): prevented hair loss or slowed progress of hair loss

OC1C(O)C(O)C(O)C(O)C1O (stereo not drawn) [muco-inositol, cis-1,2,4,5-trans-3,6-cyclohexanehexaol]
Hair growth activity (hair shaft growth rate and maximum length vs reference data) ([1]; 5 wt %): hair growth activity was not confirmed | Hair shaft growth rate [1, 4]: 0.35 ± 0.03 mm/day | Hair shaft growth rate [1, 5]: 0.36 ± 0.10 mm/day | Hair shaft maximum length ([1]; 5 wt %, second hair cycle): 4.9 ± 0.3 mm | Hair shaft maximum length [1, 6]: 5.1 ± 0.3 mm
